Test results from patent US6545148B2, “Process for preparing certain substituted caprolactams” (Novartis AG, priority 2001, dated 2003).

Assay: H2O solubility of the chromatographed white solid
Type: physicochemical
Conditions: white solid after chromatography (2% methanol-CH2Cl2), before preparative hplc purification
Experimental: To a stirred solution of trifluoroacetic acid (10 ml), tetrahydrofuran (10 ml) and water (5 ml) at 0° C. is added, in one portion, 3.8 g (7.1 mmol) of the compound prepared in a) above. The reaction is stirred at 0° C. for 30 minutes, concentrated via rotary evaporation (bath temperature <20° C), mixed with saturated NH4HCO3 (5 mL) and stirred for 15 minutes. […] This material is further purified using preparative hplc (reverse phase eluted with 90% CH3CN-water) to give 2.9 g (82.4%) of the title compound as a white solid, m.p. 79-80° C.

## CO[C@@H](C(=O)N[C@H]1CC[C@@H](OC(=O)C2CCCCC2)CNC1=O)[C@H](O)[C@@H](O)[C@H](O)/C=C/C(C)(C)C [Example 3, (2R, 3R, 4S, 5R, 6E)-3,4,5-trihydroxy-2-methoxy-8,8-dimethyl-N-[(3S,6R) -hexahydro-2-oxo-6-(cyclohexylcorbonyl)oxy-2H-azepin-3-3-yl]non-6-enamide]
  H2O solubility: 3700 µg/mL
